BindingDB's records for doi:10.1016/j.bmcl.2004.09.023 (Dupont Pharmaceuticals, 2004)

Key:
[1] = target: Cyclin-dependent kinase 4/G1/S-specific cyclin-D1 (Homo sapiens, UniProt P11802); assay: Kinase Inhibition Assay
Description: (§1) The enzyme was assayed with substrate GST-Rb in the presence of 50 mM ATP/[gamma-32P] ATP, and capturing the 32-P labeled reaction products on GSH-Sepharose beads. […] Use of 32P-labeled ATP allows this transfer to be monitored by scintillation counting.

[2] = target: Cyclin-dependent kinase 2/G1/S-specific cyclin-E1 (Homo sapiens, UniProt P24941); assay: Kinase Inhibition Assay
Description: as §1

Sequence of Cyclin-dependent kinase 4/G1/S-specific cyclin-D1 (P11802 whole entry): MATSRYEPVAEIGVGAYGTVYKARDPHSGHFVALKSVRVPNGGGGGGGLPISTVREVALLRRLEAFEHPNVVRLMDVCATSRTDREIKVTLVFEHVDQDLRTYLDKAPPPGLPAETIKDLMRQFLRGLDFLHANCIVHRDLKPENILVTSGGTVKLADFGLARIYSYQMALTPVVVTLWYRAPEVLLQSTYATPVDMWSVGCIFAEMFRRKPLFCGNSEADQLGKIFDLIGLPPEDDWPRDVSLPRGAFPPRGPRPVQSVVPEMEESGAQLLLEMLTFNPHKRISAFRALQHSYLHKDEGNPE
Sequence of Cyclin-dependent kinase 4/G1/S-specific cyclin-D1 (P24385 whole entry, further chain): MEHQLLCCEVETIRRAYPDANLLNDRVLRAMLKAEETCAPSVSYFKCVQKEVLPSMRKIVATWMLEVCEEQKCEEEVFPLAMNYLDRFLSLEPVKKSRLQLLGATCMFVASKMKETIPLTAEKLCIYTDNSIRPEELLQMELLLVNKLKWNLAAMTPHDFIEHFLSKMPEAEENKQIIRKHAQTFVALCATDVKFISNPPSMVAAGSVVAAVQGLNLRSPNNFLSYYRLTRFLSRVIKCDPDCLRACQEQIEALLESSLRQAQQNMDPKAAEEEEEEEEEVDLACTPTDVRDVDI

SMILES	IC50 [1]	IC50 ([2]; pH 7.6, 22 °C)	IC50 [2]
COc1ccc(-c2[nH]nc3c2C(=O)c2c(NC(=O)NNC(=O)c4cc(OC)cc(OC)c4)cccc2-3)cc1 [3,5-dimethoxy-N-({[3-(4-methoxyphenyl)-4-oxo-2H,4H-indeno[1,2-c]pyrazol-5-yl]carbamoyl}amino)benzamide]	24 nM	–	–
COc1ccc(-c2[nH]nc3c2C(=O)c2c(NC(=O)NNC(=O)c4cccc(C)c4)cccc2-3)cc1 [N-({[3-(4-methoxyphenyl)-4-oxo-2H,4H-indeno[1,2-c]pyrazol-5-yl]carbamoyl}amino)-3-methylbenzamide]	–	13 nM	–
COc1ccc(-c2[nH]nc3c2C(=O)c2c(NC(=O)NNC(=O)c4ccccc4)cccc2-3)cc1 [N-({[3-(4-methoxyphenyl)-4-oxo-2H,4H-indeno[1,2-c]pyrazol-5-yl]carbamoyl}amino)benzamide]	–	–	12 nM
COc1ccc(-c2[nH]nc3c2C(=O)c2c(NC(=O)NNC(=O)C(N)=O)cccc2-3)cc1 [N-({[3-(4-methoxyphenyl)-4-oxo-2H,4H-indeno[1,2-c]pyrazol-5-yl]carbamoyl}amino)ethanediamide]	–	–	97 nM
COc1ccc(-c2[nH]nc3c2C(=O)c2c(NC(=O)NNC(=O)C(C)C)cccc2-3)cc1 [N-({[3-(4-methoxyphenyl)-4-oxo-2H,4H-indeno[1,2-c]pyrazol-5-yl]carbamoyl}amino)-2-methylpropanamide]	–	19 nM	–
COc1ccc(-c2[nH]nc3c2C(=O)c2c(NC(=O)NNC(=O)Cc4ccccc4)cccc2-3)cc1 [N-({[3-(4-methoxyphenyl)-4-oxo-2H,4H-indeno[1,2-c]pyrazol-5-yl]carbamoyl}amino)-2-phenylacetamide]	27 nM	–	33 nM
COc1ccc(-c2[nH]nc3c2C(=O)c2c(NC(=O)NNC(=O)c4cccc(N)c4)cccc2-3)cc1 [3-amino-N-({[3-(4-methoxyphenyl)-4-oxo-2H,4H-indeno[1,2-c]pyrazol-5-yl]carbamoyl}amino)benzamide]	–	–	13 nM
COc1ccc(C(=O)NNC(=O)Nc2cccc3c2C(=O)c2c(-c4ccc(OC)cc4)n[nH]c2-3)cc1 [4-methoxy-N-({[3-(4-methoxyphenyl)-4-oxo-2H,4H-indeno[1,2-c]pyrazol-5-yl]carbamoyl}amino)benzamide]	11 nM	15 nM	–
COc1ccc(-c2[nH]nc3c2C(=O)c2c(NC(=O)NNC(=O)c4ccc5ccccc5c4)cccc2-3)cc1 [N-({[3-(4-methoxyphenyl)-4-oxo-2H,4H-indeno[1,2-c]pyrazol-5-yl]carbamoyl}amino)naphthalene-2-carboxamide]	13 nM	–	35 nM
COc1ccc(-c2[nH]nc3c2C(=O)c2c(NC(=O)NNC(=O)c4cc(N)cc(N)c4)cccc2-3)cc1 [3,5-diamino-N-({[3-(4-methoxyphenyl)-4-oxo-2H,4H-indeno[1,2-c]pyrazol-5-yl]carbamoyl}amino)benzamide]	16 nM	39 nM	–
COc1ccc(-c2[nH]nc3c2C(=O)c2c(NC(=O)NNC(=O)c4ccccc4OC)cccc2-3)cc1 [2-methoxy-N-({[3-(4-methoxyphenyl)-4-oxo-2H,4H-indeno[1,2-c]pyrazol-5-yl]carbamoyl}amino)benzamide]	–	14 nM	–
COc1ccc(-c2[nH]nc3c2C(=O)c2c(NC(=O)NNC(=O)c4ccc(O)c(N)c4)cccc2-3)cc1 [3-amino-4-hydroxy-N-({[3-(4-methoxyphenyl)-4-oxo-2H,4H-indeno[1,2-c]pyrazol-5-yl]carbamoyl}amino)benzamide]	–	24 nM	–
COc1ccc(-c2[nH]nc3c2C(=O)c2c(NC(=O)NNC(=O)c4cccc([N+](=O)[O-])c4)cccc2-3)cc1 [N-({[3-(4-methoxyphenyl)-4-oxo-2H,4H-indeno[1,2-c]pyrazol-5-yl]carbamoyl}amino)-3-nitrobenzamide]	–	24 nM	–
COc1ccc(-c2[nH]nc3c2C(=O)c2c(NC(=O)NNC(=O)c4ccc(C)cc4)cccc2-3)cc1 [N-({[3-(4-methoxyphenyl)-4-oxo-2H,4H-indeno[1,2-c]pyrazol-5-yl]carbamoyl}amino)-4-methylbenzamide]	–	24 nM	–
COc1ccc(-c2[nH]nc3c2C(=O)c2c(NC(=O)NNC(=O)c4ccncc4)cccc2-3)cc1 [N-({[3-(4-methoxyphenyl)-4-oxo-2H,4H-indeno[1,2-c]pyrazol-5-yl]carbamoyl}amino)pyridine-4-carboxamide]	–	–	12 nM
COc1ccc(-c2[nH]nc3c2C(=O)c2c(NC(=O)NNC(=O)Nc4ccccc4)cccc2-3)cc1 [3-[3-(4-methoxyphenyl)-4-oxo-2H,4H-indeno[1,2-c]pyrazol-5-yl]-1-[(phenylcarbamoyl)amino]urea]	–	19 nM	–
COc1ccc(-c2[nH]nc3c2C(=O)c2c(NC(=O)NNC(C)=O)cccc2-3)cc1 [N-({[3-(4-methoxyphenyl)-4-oxo-2H,4H-indeno[1,2-c]pyrazol-5-yl]carbamoyl}amino)acetamide]	57 nM	–	37 nM
COc1ccc(-c2[nH]nc3c2C(=O)c2c(NC(=O)NNC(=O)CCc4ccc(O)cc4)cccc2-3)cc1 [3-(4-hydroxyphenyl)-N-({[3-(4-methoxyphenyl)-4-oxo-2H,4H-indeno[1,2-c]pyrazol-5-yl]carbamoyl}amino)propanamide]	–	13 nM	–
COc1ccc(-c2[nH]nc3c2C(=O)c2c(NC(=O)NNC(=O)c4cccc5ccccc45)cccc2-3)cc1 [N-({[3-(4-methoxyphenyl)-4-oxo-2H,4H-indeno[1,2-c]pyrazol-5-yl]carbamoyl}amino)naphthalene-1-carboxamide]	–	53 nM	–
COc1ccc(-c2[nH]nc3c2C(=O)c2c(NC(=O)NNC(=O)c4cc(Cl)ccc4Cl)cccc2-3)cc1 [2,5-dichloro-N-({[3-(4-methoxyphenyl)-4-oxo-2H,4H-indeno[1,2-c]pyrazol-5-yl]carbamoyl}amino)benzamide]	28 nM	36 nM	–
COc1ccc(-c2[nH]nc3c2C(=O)c2c(NC(=O)NNC(=O)c4ccc(O)cc4O)cccc2-3)cc1 [2,4-dihydroxy-N-({[3-(4-methoxyphenyl)-4-oxo-2H,4H-indeno[1,2-c]pyrazol-5-yl]carbamoyl}amino)benzamide]	12 nM	–	16 nM
COc1ccc(-c2[nH]nc3c2C(=O)c2c(NC(=O)NNC(=O)c4cccnc4)cccc2-3)cc1 [N-({[3-(4-methoxyphenyl)-4-oxo-2H,4H-indeno[1,2-c]pyrazol-5-yl]carbamoyl}amino)pyridine-3-carboxamide]	–	–	16 nM
COC(=O)NNC(=O)Nc1cccc2c1C(=O)c1c-2n[nH]c1-c1ccc(OC)cc1 [methoxy-N-({[3-(4-methoxyphenyl)-4-oxo-2H,4H-indeno[1,2-c]pyrazol-5-yl]carbamoyl}amino)formamide]	–	16 nM	–
